Measured values as given in US20130123254A1, “PHARMACEUTICALLY ACCEPTABLE MGLUR5 POSITIVE ALLOSTERIC MODULATORS AND THEIR METHODS OF IDENTIFICATION” (priority 2011, published 2013).

Key:
human mGlu5a receptor [1] = molecular target: T1, human mGlu5a receptor (Homo sapiens, UniProt P41594); assay: Intracellular Ca2+ mobilization assay, PAM EC50 and efficacy at EC20 of L-glutamate; format: cell-based; details: maximal response relative to saturating L-glutamate, FIGS. 4 and 5
T1 construct: expressed in transfected cells

human mGlu5a receptor [2] = molecular target: T1, human mGlu5a receptor; assay: Shift factor in Ca2+ mobilization assay (human); format: cell-based; details: shift factor = EC50(glutamate)/EC50(glutamate + test compound)
Procedure: A monoclonal HEK-293 cell line stably transfected with a cDNA encoding for the human mGlu5a receptor was generated; for the work with mGlu5 Positive Allosteric Modulators (PAMs), a cell line with low receptor expression levels and low constitutive receptor activity was selected to allow the differentiation of agonistic versus PAM activity. Cells were cultured according to standard protocols (Freshney, 2000) in Dulbecco's Modified Eagle Medium with high glucose supplemented with 1 mM glutamine, 10% (vol/vol) heat-inactivated bovine calf serum, Penicillin/Streptomycin, 50 μg/ml hygromycin and 15 μg/ml blasticidin (all cell culture reagents and antibiotics from Invitrogen, Basel, Switzerland).
About 24 hrs before an experiment, 5×10^4 cells/well were seeded in poly-D-lysine coated, black/clear-bottomed 96-well plates. The cells were loaded with 2.5 μM Fluo-4AM in loading buffer (1×HBSS, 20 mM HEPES) for 1 hr at 37° C. and washed five times with loading buffer. The cells were transferred into a Functional Drug Screening System 7000 (Hamamatsu, Paris, France), and 11 half logarithmic serial dilutions of test compound at 37° C. were added and the cells were incubated for 10-30 min. with on-line recording of fluorescence. Following this pre-incubation step, the agonist L-glutamate was added to the cells at a concentration corresponding to EC20 (typically around 80 μM) with on-line recording of fluorescence; in order to account for day-to-day variations in the responsiveness of cells, the EC20 of glutamate was determined immediately ahead of each experiment by recording of a full dose-response curve of glutamate.
(§1) The shift factor is calculated for a specific concentration of the test compound according to the equation: Shift factor=EC50(glutamate)/EC50(glutamate+×uM test compound).
(§2) On the same 96-well plate a serial dilution of glutamate is added to a) cells previously incubated for 10-30 min. with a fixed concentration of an mGlu5 PAM test compound and b) cells not incubated with mGlu5 PAM test compound. The peak fluorescence signals obtained from cells with or without pre-incubation with mGlu5 PAM test compound is plotted as illustrated, and the two EC50 values are derived from the plot. The shift factor is specific for the concentration of the test compound used and calculated as follows: Shift factor=ECM50(glutamate)/EC50(glutamate+×μM test compound).

mGlu5 receptor = molecular target: T2, mGlu5 receptor (Rattus norvegicus, UniProt P31424); assay: Shift factor in Ca2+ mobilization assay (rat); format: cell-based
T2 construct: expressed in transfected cells
Procedure: as §1, §2

Body temperature test = format: in vivo; details: rat, body temperature at 2 h, read-out: BT test MED (rat)
Procedure: Principle: Evaluation of the effect of a compound on core body temperature at a 2-h interval in the rat.
The temperature decrease in rats upon administration of mGluR5 negative allosteric modulators (antagonists) is well documented Warty & al.; Psychopharmacology (2005) 179: 207-217 (DOI 10.1007/s00213-005-2143-4)).
Male Sprague Dawley Rats (OFA-SD, Charles River, ˜250 g) are weighed and isolated for at least 30 min before compound injection in type II Makrolon cages. Before injection of the mGlu5 PAM compound, rectal body temperature is measured with a thermometer with a special rat probe for ˜20 s. The probe is dipped in glycerin before each use. Immediately after compound administration, rats are placed back in the type 2 cage. After 2 hours, the body temperature of each rat is measured again. The difference in absolute body temperature as well as the temperature difference delta T2-T0 between vehicle and compound injected rats is analysed.

[3] = HTD/LTD dose, tolerability in rat; details: for HTD/LTD Dose (rat) (observation): observation at the HTD/LTD dose

T1 sequence (P41594 21-1180 isoform P41594-2 limits assumed): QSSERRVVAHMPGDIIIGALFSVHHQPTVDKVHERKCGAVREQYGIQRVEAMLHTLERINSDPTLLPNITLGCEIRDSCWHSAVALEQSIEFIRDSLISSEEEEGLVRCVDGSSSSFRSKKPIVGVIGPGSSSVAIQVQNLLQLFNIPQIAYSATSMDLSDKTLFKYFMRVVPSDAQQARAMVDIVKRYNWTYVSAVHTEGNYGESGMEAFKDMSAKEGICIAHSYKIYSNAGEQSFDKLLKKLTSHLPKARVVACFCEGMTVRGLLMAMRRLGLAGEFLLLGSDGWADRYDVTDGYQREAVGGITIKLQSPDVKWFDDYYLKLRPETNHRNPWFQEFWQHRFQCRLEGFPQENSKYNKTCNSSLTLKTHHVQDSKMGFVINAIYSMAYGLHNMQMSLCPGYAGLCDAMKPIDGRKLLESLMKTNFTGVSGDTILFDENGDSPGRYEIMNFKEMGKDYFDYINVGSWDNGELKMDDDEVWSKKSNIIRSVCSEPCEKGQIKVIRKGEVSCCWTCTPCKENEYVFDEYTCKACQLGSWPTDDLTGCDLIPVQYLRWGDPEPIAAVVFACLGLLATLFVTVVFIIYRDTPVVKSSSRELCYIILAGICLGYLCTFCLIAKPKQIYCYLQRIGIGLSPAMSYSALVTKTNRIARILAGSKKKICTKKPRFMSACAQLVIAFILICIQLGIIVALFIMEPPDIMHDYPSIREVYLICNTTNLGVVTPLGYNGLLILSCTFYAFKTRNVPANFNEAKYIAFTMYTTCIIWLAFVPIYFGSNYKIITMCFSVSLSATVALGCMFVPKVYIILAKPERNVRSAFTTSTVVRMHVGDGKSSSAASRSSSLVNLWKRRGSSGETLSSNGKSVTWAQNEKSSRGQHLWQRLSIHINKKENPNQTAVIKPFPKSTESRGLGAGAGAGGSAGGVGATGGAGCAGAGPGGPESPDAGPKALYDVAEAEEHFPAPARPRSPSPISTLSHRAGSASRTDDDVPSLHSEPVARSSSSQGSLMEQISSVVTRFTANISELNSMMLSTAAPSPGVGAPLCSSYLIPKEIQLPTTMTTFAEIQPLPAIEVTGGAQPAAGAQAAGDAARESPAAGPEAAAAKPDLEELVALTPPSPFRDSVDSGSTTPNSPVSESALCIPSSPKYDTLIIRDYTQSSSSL
T2 sequence (P31424 21-1203): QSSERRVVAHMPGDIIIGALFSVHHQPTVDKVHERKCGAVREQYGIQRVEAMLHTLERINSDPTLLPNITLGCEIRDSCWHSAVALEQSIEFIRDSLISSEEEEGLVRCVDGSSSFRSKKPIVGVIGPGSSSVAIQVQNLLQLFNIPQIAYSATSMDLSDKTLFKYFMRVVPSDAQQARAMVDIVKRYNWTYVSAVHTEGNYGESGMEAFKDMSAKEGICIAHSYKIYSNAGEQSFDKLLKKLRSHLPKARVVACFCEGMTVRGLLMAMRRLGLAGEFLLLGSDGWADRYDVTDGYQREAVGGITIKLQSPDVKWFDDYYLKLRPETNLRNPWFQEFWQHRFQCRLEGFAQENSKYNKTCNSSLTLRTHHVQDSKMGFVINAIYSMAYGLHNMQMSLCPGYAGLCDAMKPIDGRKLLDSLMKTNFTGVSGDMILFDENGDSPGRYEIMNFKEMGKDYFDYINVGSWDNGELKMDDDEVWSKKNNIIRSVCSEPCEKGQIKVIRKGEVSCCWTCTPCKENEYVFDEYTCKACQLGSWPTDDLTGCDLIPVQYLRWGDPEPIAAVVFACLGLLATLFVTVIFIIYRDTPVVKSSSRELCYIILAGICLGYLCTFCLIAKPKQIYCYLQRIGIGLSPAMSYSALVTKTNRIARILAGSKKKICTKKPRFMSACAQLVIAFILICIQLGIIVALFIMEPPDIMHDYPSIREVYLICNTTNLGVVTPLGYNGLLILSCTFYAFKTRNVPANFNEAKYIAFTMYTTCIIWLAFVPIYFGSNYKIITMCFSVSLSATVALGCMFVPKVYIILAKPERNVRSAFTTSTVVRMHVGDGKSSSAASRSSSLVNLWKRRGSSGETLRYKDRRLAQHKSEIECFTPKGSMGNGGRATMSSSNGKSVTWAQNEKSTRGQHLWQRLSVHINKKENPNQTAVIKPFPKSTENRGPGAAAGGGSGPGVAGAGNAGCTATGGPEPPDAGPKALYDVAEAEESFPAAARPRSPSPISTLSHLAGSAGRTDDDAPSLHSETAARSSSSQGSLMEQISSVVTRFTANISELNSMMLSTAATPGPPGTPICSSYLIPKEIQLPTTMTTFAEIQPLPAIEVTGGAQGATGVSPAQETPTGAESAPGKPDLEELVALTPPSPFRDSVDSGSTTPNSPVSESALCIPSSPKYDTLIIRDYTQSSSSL

Structure (SMILES) | efficacy (human mGlu5a receptor [1]) | Shift (hum, 10 uM) (human mGlu5a receptor [2]) | Shift (rat, 10 uM) (mGlu5 receptor) | minimal effective dose (Body temperature test) [mg/kg] | HTD/LTD Dose (rat) [3] [mg/kg] | HTD/LTD Dose (rat) (observation) [3]
CC1(C)CC(=O)N(c2ccc(C#Cc3cccc(F)c3)cn2)N1 [Example 1] | low efficacy | 1.75 | 1.44 | 0.3 | 100 | well tolerated
CN1C(=O)N(c2ccc(C#Cc3ccccc3)cn2)[C@@H]2CCC[C@@H]21 [Example 2] |  | 1.02 | 0.88 | 0.1 | 100 | well tolerated
CN1C(=O)N(c2ccc(C#Cc3cccc(F)c3)cn2)[C@@H]2CCC[C@@H]21 [Example 3] |  | 0.87 | 0.82 | 0.1 | 100 | well tolerated
CN1C(=O)N(c2ccc(C#Cc3ccccc3)nn2)[C@@H]2CCC[C@@H]21 [Example 4] |  | 2.46 | 1.70 | 0.1 | 100 | well tolerated
CN1C(C)(C)CN(c2ccc(C#Cc3ccccc3)cn2)S1(=O)=O [Example 5] |  | 2.02 | 1.66 | 0.3 | 100 | well tolerated
CC1(C)CN(c2ccc(C#Cc3cccc(F)c3)cn2)C(=O)O1 [Example 6] |  | 1.40 | 1.90 | 0.3 | 100 | well tolerated
CN1C(=O)N(c2ncc(C#Cc3ccc(F)cc3)cn2)CC1(C)C [Example 7] |  | 2.44 | 1.80 | 0.3 | 100 | well tolerated
CN1C(=O)N(c2ccc(C#Cc3cncc(Cl)c3)cn2)CC1(C)C [Example 8] |  | 3.60 | 2.28 | 1 | 100 | well tolerated
CC1(C)CN(c2ccc(C#Cc3ccccc3)cn2)C(=O)O1 [Example 9] |  | 1.70 | 2.63 | 1 | 30 | well tolerated
CO[C@@H]1C(=O)N(c2ncc(C#Cc3cccc(F)c3)cn2)CC1(C)C [Example 10] |  | 3.46 | 2.62 | 0.3 | 100 | well tolerated
CN(C(=O)c1ncc(C#Cc2cccc(F)c2)cn1)C(C)(C)C [Example 11] |  | 2.06 | 1.86 | 0.1 | 100 | well tolerated
CN(C(=O)c1ccc(C#Cc2cc(F)ccc2F)cn1)C(C)(C)C [Example 12] |  | 1.86 | 1.62 | 0.1 | 100 | well tolerated
CC1(C)CCN(c2ccc(C#Cc3cccc(Cl)c3)cn2)C(=O)C1 [Example 13] |  | 4.74 | 3.92 | 0.1 | 100 | seizures
CN1C(=O)N(c2ccc(C#Cc3ccccc3)cn2)CC1(C)C [Example 14] |  |  |  | 0.3 | 3 | 
CC1(C)CCN(c2ccc(C#Cc3ccccc3)cn2)C(=O)O1 [Example 15] | high efficacy | 9.73 | 7.67 | 0.1 | 3 | seizures
C(#Cc1cnc2nc(N3CCOCC3)nn2c1)c1ccccc1 [Example 16] |  | 12.13 | 11.31 | 3 | 10 | seizures
CC1(C)CCN(c2ccc(C#Cc3ccccc3)cn2)C(=O)C1 [Example 17] |  | 15.95 | 12.93 | 0.1 | 100 | seizures
